From ChEMBL document CHEMBL3596092, “Design, synthesis and biological evaluation of 4-(alkyloxy)-6-methyl-2H-pyran-2-one derivatives as quorum sensing inhibitors” (Bioorg Med Chem Lett, 2015)
Active and inactive are the calls of the source.

Columns and labels:
[1] = biological target: T1, Transcriptional activator protein LasR (Pseudomonas aeruginosa (strain ATCC 15692 / PAO1 / 1C / PRS 101 / LMG12228)) (UniProt P25084); assay: Inhibition of LasR in Pseudomonas aeruginosa PA14 assessed as reduction in phzE1 gene expression at 10 uM by RT-qPCR method
T1 sequence (whole entry): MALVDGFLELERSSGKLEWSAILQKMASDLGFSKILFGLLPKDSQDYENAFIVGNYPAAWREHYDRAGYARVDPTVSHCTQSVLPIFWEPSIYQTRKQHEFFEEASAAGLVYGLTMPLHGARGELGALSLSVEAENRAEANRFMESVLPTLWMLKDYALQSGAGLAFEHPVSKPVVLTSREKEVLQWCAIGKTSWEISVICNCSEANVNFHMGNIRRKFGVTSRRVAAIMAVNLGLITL

[2] = biological target: T1, Transcriptional activator protein LasR (Pseudomonas aeruginosa (strain ATCC 15692 / PAO1 / 1C / PRS 101 / LMG12228)); assay: Inhibition of LasR in Pseudomonas aeruginosa PA14 assessed as reduction in rhlR gene expression at 10 uM by RT-qPCR method
[3] = biological target: T1, Transcriptional activator protein LasR (Pseudomonas aeruginosa (strain ATCC 15692 / PAO1 / 1C / PRS 101 / LMG12228)); assay: Inhibition of LasR in Pseudomonas aeruginosa PA14 assessed as reduction in phnB gene expression at 10 uM by RT-qPCR method
[4] = biological target: T1, Transcriptional activator protein LasR (Pseudomonas aeruginosa (strain ATCC 15692 / PAO1 / 1C / PRS 101 / LMG12228)); assay: Inhibition of LasR in Pseudomonas aeruginosa PA14 assessed as reduction in lasI gene expression at 10 uM by RT-qPCR method
[5] = biological target: T1, Transcriptional activator protein LasR (Pseudomonas aeruginosa (strain ATCC 15692 / PAO1 / 1C / PRS 101 / LMG12228)); assay: Inhibition of LasR in Pseudomonas aeruginosa PA14 assessed as reduction in pqsH gene expression at 10 uM by RT-qPCR method
[6] = biological target: T1, Transcriptional activator protein LasR (Pseudomonas aeruginosa (strain ATCC 15692 / PAO1 / 1C / PRS 101 / LMG12228)); assay: Inhibition of LasR in Pseudomonas aeruginosa PA14 assessed as reduction in lasR gene expression at 10 uM by RT-qPCR method
[7] = biological target: T1, Transcriptional activator protein LasR (Pseudomonas aeruginosa (strain ATCC 15692 / PAO1 / 1C / PRS 101 / LMG12228)); assay: Inhibition of LasR in Pseudomonas aeruginosa PA14 assessed as reduction in lasB gene expression at 10 uM by RT-qPCR method
[8] = biological target: T1, Transcriptional activator protein LasR (Pseudomonas aeruginosa (strain ATCC 15692 / PAO1 / 1C / PRS 101 / LMG12228)); assay: Inhibition of LasR in Pseudomonas aeruginosa PA14 assessed as reduction in lasA gene expression at 10 uM by RT-qPCR method
[9] = biological target: T1, Transcriptional activator protein LasR (Pseudomonas aeruginosa (strain ATCC 15692 / PAO1 / 1C / PRS 101 / LMG12228)); assay: Inhibition of LasR in Pseudomonas aeruginosa PA14 assessed as reduction in phzC1 gene expression at 10 uM by RT-qPCR method
[10] = biological target: T1, Transcriptional activator protein LasR (Pseudomonas aeruginosa (strain ATCC 15692 / PAO1 / 1C / PRS 101 / LMG12228)); assay: Inhibition of LasR in Pseudomonas aeruginosa PA14 assessed as reduction in biofilm formation incubated at 37 degC for 24 hrs by crystal violet staining based static biofilm formation assay
Pseudomonas aeruginosa [11] = assay: Toxicity against Pseudomonas aeruginosa PA14 assessed as effect on bacterial growth at 1 to 10 uM incubated at 37 degC for 13 hrs
[12] = biological target: T1, Transcriptional activator protein LasR (Pseudomonas aeruginosa (strain ATCC 15692 / PAO1 / 1C / PRS 101 / LMG12228)); assay: Inhibition of LasR in Pseudomonas aeruginosa PA14 assessed as reduction in biofilm formation at 1 to 1000 uM incubated at 37 degC for 24 hrs by crystal violet staining based static biofilm formation assay
[13] = biological target: T1, Transcriptional activator protein LasR (Pseudomonas aeruginosa (strain ATCC 15692 / PAO1 / 1C / PRS 101 / LMG12228)); assay: Inhibition of LasR in Pseudomonas aeruginosa PA14 assessed as reduction in rhlB gene expression at 10 uM by RT-qPCR method
Pseudomonas aeruginosa [14] = assay: Toxicity against Pseudomonas aeruginosa PA14 assessed as effect on house keeping proC gene expression at 10 uM by RT-qPCR method
[15] = biological target: T1, Transcriptional activator protein LasR (Pseudomonas aeruginosa (strain ATCC 15692 / PAO1 / 1C / PRS 101 / LMG12228)); assay: Inhibition of LasR in Pseudomonas aeruginosa PA14 assessed as reduction in biofilm formation at 0.1 to 10 uM incubated at 37 degC for 24 hrs by crystal violet staining based static biofilm formation assay
[16] = biological target: T1, Transcriptional activator protein LasR (Pseudomonas aeruginosa (strain ATCC 15692 / PAO1 / 1C / PRS 101 / LMG12228)); assay: Inhibition of LasR in Pseudomonas aeruginosa PA14 assessed as reduction in pqsD gene expression at 10 uM by RT-qPCR method
[17] = biological target: T1, Transcriptional activator protein LasR (Pseudomonas aeruginosa (strain ATCC 15692 / PAO1 / 1C / PRS 101 / LMG12228)); assay: Inhibition of LasR in Pseudomonas aeruginosa PA14 assessed as reduction in rhlI gene expression at 10 uM by RT-qPCR method
[18] = biological target: T1, Transcriptional activator protein LasR (Pseudomonas aeruginosa (strain ATCC 15692 / PAO1 / 1C / PRS 101 / LMG12228)); assay: Inhibition of LasR in Pseudomonas aeruginosa PA14 assessed as reduction in rhlA gene expression at 10 uM by RT-qPCR method
[19] = biological target: T1, Transcriptional activator protein LasR (Pseudomonas aeruginosa (strain ATCC 15692 / PAO1 / 1C / PRS 101 / LMG12228)); assay: Inhibition of LasR in Pseudomonas aeruginosa PA14 assessed as reduction in mvfR gene expression at 10 uM by RT-qPCR method
[20] = biological target: T1, Transcriptional activator protein LasR (Pseudomonas aeruginosa (strain ATCC 15692 / PAO1 / 1C / PRS 101 / LMG12228)); assay: Inhibition of LasR in Pseudomonas aeruginosa PA14 assessed as reduction in pqsC gene expression at 10 uM by RT-qPCR method
[21] = biological target: T1, Transcriptional activator protein LasR (Pseudomonas aeruginosa (strain ATCC 15692 / PAO1 / 1C / PRS 101 / LMG12228)); assay: Inhibition of Pseudomonas aeruginosa LasR expressed in Pseudomonas aeruginosa PA14 over-expressing pUCPLasR assessed as reduction in biofilm formation at 0.1 to 100 uM incubated at 37 degC for 24 hrs by crystal violet staining based static biofilm formation assay

CCCCCCCCCCCCOc1cc(C)oc(=O)c1
11%: inhibition [12]
active: inhibition [1] | inhibition [2] | inhibition [3] | inhibition [4] | inhibition [5] | inhibition [6] | inhibition [7] | inhibition [8] | inhibition [9] | inhibition [10] Dose-dependent effect | inhibition [13] | inhibition [16] | inhibition [17] | inhibition [18] | inhibition [19] | inhibition [20] | inhibition [21]
6%: inhibition [15]
Non-toxic: Activity (Pseudomonas aeruginosa [11]) | Activity (Pseudomonas aeruginosa [14])

CCCCCCCCCCCCCOc1cc(C)oc(=O)c1
6%: inhibition [12]

CCCCCCCCCCCCCCOc1cc(C)oc(=O)c1
6%: inhibition [12]

O=C1C=C(Br)/C(=C/Br)O1
13%: inhibition [12]
